In the supplement of paper PMC10307832:

Assays:
Experiment in all cases: relative viability (nuclei count vs DMSO), 5 days (fraction); higher = more cells survive
[1] = compound: C[As](C)SC[C@H](NC(=O)CC[C@H](N)C(=O)O)C(=O)NCC(=O)O [Darinaparsin] + CC(=O)c1c(C)c2cnc(Nc3ccc(N4CCNCC4)cn3)nc2n(C2CCCC2)c1=O [Palbociclib] (partner 0.5 µM)
Summary of the method: (§1)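 Relative viability equals treated-well nuclei counts divided by vehicle-well nuclei counts. Counts came from 4× images of lung cancer cell lines grown in 1536-well plates for 5 days after pin-tool dosing on the day after seeding. Dosing used one drug alone or a fixed anchor-drug dose plus five library-drug doses (not always all listed) in √10 steps, and values are medians of duplicate plates.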

[2] = compound: C[As](C)SC[C@H](NC(=O)CC[C@H](N)C(=O)O)C(=O)NCC(=O)O [Darinaparsin] + COc1cc2c(Oc3ccc(NC(=O)C4(C(=O)Nc5ccc(F)cc5)CC4)cc3F)ccnc2cc1OCCCN1CCOCC1 [Foretinib] (partner 0.25 µM)
Summary of the method: as §1

[3] = compound: C[As](C)SC[C@H](NC(=O)CC[C@H](N)C(=O)O)C(=O)NCC(=O)O [Darinaparsin] + CS(=O)(=O)N1CCN(Cc2cc3nc(-c4cccc5[nH]ncc45)nc(N4CCOCC4)c3s2)CC1 [Pictilisib] (partner 1 µM)
Summary of the method: as §1

[4] = compound: CC1=C(C=C(C=C1)NC(=O)C2=CC(=CC=C2)C(C)(C)C#N)NC3=CC4=C(C=C3)N=CN(C4=O)C [AZ628] + COc1cccc2cc(-c3nc([C@H]4CC[C@H](C(=O)O)CC4)n4ncnc(N)c34)[nH]c12 [OSI-027] (partner 0.5 µM)
Summary of the method: as §1

Cell Line | relative viability ([1]; first compound 0.08 µM) | relative viability ([1]; first compound 0.8 µM) | relative viability ([1]; first compound 2.53 µM) | relative viability ([1]; first compound 8 µM) | relative viability ([2]; first compound 0.08 µM) | relative viability ([2]; first compound 0.8 µM) | relative viability ([2]; first compound 2.53 µM) | relative viability ([2]; first compound 8 µM) | relative viability ([3]; first compound 0.08 µM) | relative viability ([3]; first compound 0.8 µM) | relative viability ([3]; first compound 2.53 µM) | relative viability ([3]; first compound 8 µM) | relative viability ([4]; first compound 0.08 µM) | relative viability ([4]; first compound 0.253 µM) | relative viability ([4]; first compound 0.8 µM) | relative viability ([4]; first compound 2.53 µM) | relative viability ([4]; first compound 8 µM)
UMC-11 | 0.309 | 0.342 | 0.295 | 0.345 | 1.16 | 1.03 | 0.974 | 1.25 | 0.897 | 0.821 | 0.75 | 0.915 | 0.468 | 0.496 | 0.46 | 0.464 | 0.382
NCI-H23 | 0.549 | 0.52 | 0.51 | 0.479 | 0.986 | 0.843 | 0.891 | 1.06 | 0.431 | 0.494 | 0.444 | 0.603 | 0.568 | 0.528 | 0.464 | 0.474 | 0.309
NCI-H1355 | 0.445 | 0.398 | 0.322 | 0.387 | 1.09 | 0.91 | 0.854 | 0.768 | 0.445 | 0.37 | 0.451 | 0.456 | 0.435 | 0.327 | 0.311 | 0.308 | 0.298
NCI-H1734 | 0.35 | 0.332 | 0.361 | 0.395 | 1.04 | 0.801 | 0.815 | 0.99 | 0.534 | 0.473 | 0.421 | 0.559 | 0.604 | 0.565 | 0.512 | 0.46 | 0.293
EPLC-272H | 0.318 | 0.315 | 0.333 | 0.292 |  | 0.658 | 0.619 | 0.814 | 0.295 | 0.332 | 0.266 | 0.311 | 0.211 | 0.258 | 0.295 | 0.238 | 0.171
LXF-289 | 0.638 | 0.611 | 0.488 | 0.562 | 1.07 | 0.994 | 0.946 | 1.1 | 0.806 | 0.749 | 0.597 | 0.981 | 0.812 | 0.763 | 0.736 | 0.74 | 0.434
NCI-H520 | 0.149 | 0.208 | 0.216 | 0.248 | 1.12 | 0.662 | 0.845 | 0.871 | 0.287 | 0.339 | 0.241 | 0.277 | 0.262 | 0.21 | 0.206 | 0.203 | 0.232
NCI-H1395 | 0.617 | 0.54 | 0.54 | 0.646 | 1.13 | 0.958 | 0.944 | 0.952 | 0.538 | 0.617 | 0.619 | 0.568 | 0.652 | 0.544 | 0.625 | 0.56 | 0.554
H3255 | 0.303 | 0.313 | 0.329 | 0.294 | 0.781 | 0.863 | 0.913 | 0.854 | 0.474 | 0.429 | 0.421 | 0.514 | 0.64 | 0.484 | 0.564 | 0.584 | 0.323
NCI-H2170 | 0.427 | 0.425 | 0.385 | 0.411 | 1.01 | 0.965 | 0.992 | 1.19 | 0.305 | 0.279 | 0.316 | 0.297 | 0.836 | 0.676 | 0.717 | 0.749 | 0.578
NCI-H460 | 0.147 | 0.176 | 0.117 | 0.181 | 1.04 | 1.04 | 1.03 | 1.33 | 0.479 | 0.415 | 0.373 | 0.406 | 0.738 | 0.64 | 0.259 | 0.429 | 0.107
PC-14 | 0.661 | 0.53 | 0.365 | 0.462 | 1.18 | 0.981 | 0.927 | 1.14 | 1.15 | 0.823 | 0.566 | 0.752 | 0.727 | 0.956 | 0.733 | 0.666 | 0.329
HCC-15 | 0.639 | 0.773 | 0.723 | 0.882 | 1.31 | 1 | 0.98 | 1.26 | 0.879 | 0.71 | 0.72 | 0.92 | 0.751 | 0.582 | 0.461 | 0.433 | 0.236
NCI-H1437 | 0.321 | 0.307 | 0.328 | 0.338 | 1.35 | 1.3 | 1.24 | 1.32 | 0.468 | 0.409 | 0.395 | 0.391 | 0.896 | 0.836 | 0.723 | 0.934 | 0.904
COR-L23 | 0.303 | 0.335 | 0.246 | 0.299 | 1.21 | 1.04 | 0.934 | 1.34 | 1.06 | 0.706 | 0.41 | 0.932 | 0.678 | 0.669 | 0.602 | 0.558 | 0.302
NCI-H1975 | 0.693 | 0.634 | 0.504 | 0.606 | 1.13 | 0.994 | 0.975 | 1.12 | 0.289 | 0.299 | 0.289 | 0.28 | 0.726 | 0.619 | 0.483 | 0.503 | 0.373
